The values below come from a melting point compilation (Tetko et al.; mined from patent text by program, amines drawn as free bases though some values may be those of a salt).

Structures are written as SMILES. Some results are limits rather than exact numbers.

One may read the melting point as the temperature, or range, at which the solid turns liquid. For the compound `CC(C)(C)c1ccc(Cn2c(-c3ccc4c(c3)OCO4)nc3ccccc32)cc1`, the melting point fell in the range of 142 to 144 °C.
For the compound `CC(C)(CO)NC(=O)Cc1ccc2c(c1)C(=O)c1sccc1CO2`, the melting point lay in the range of 162 to 163 °C.
As to `Cc1nc(Sc2ccccn2)sc1CC(=O)O`, the melting point was in the range of 140 to 142 °C.
The compound `CC(C)(C)C#Cc1cc([N+](=O)[O-])ccc1C(=O)O` had a melting point of 170 to 173 °C.
For the compound `O=C(c1ccc(Cl)cn1)c1ccc(Cl)cn1`, the melting point was 164 to 167 °C.
Consider `CCOC(=O)Cn1c2c(c3c(Cl)cc(Cl)cc31)CCN(C(=O)OC(C)(C)C)CC2`, for which the melting point lay within 144 to 147 °C.
The figure for `CCOC(=O)c1[nH]c2cc(Cl)cc(Cl)c2c1NS(=O)(=O)c1ccccc1` is 245 to 247 °C; for `CC(C)Cn1c(CNC(=O)OC(C)(C)C)c(OCCCC(F)(F)F)c2cc(O)ccc2c1=O` it is 173 to 174 °C; for `Cc1oc(-c2ccco2)nc1COc1ccc(CC(=O)O)cc1` it is 139 to 140 °C.
For `O=C1NC(c2ccccc2)CN1CCO` (configuration not stated), the melting point is 60 to 63 °C.
Take `OCc1ccc(OCc2ccccc2)cc1O`: the melting point fell in the range of 88 to 90 °C.
As for `Nc1ccc(NC=C(S(=O)(=O)c2ccccc2)S(=O)(=O)c2ccccc2)nc1`, the melting point was in the range of 172 to 174 °C.
With `O=C1COc2ccc(Br)cc2C(=O)C1`, the melting point was in the range of 110 to 112 °C.
`O=C1NCc2cccn2-c2ccsc21` came in with a melting point of 191 °C.
For `CCCCOc1cc(OCCCC)c(C(=O)O)c(C(F)(F)F)n1`, the melting point fell in the range of 90 to 93.5 °C.
The figure for `COC(=O)c1cncc(O)c1` is 186 to 187 °C; for `Oc1cccc(-n2cnc3cc(C(F)(F)F)ccc32)c1` it is 168 to 170 °C.
As for `Cc1ccccc1C(=O)Nc1ccc(C(=O)N2Cc3ccnn3Cc3ccccc32)cc1`, the melting point fell in the range of 142 to 146 °C.
As for `OCCOc1ccc(Cn2ccnc2)cc1`, the melting point lay in the range of 81 to 82 °C.
Take `CCCCc1ccc(C(=O)O)cc1C12CC3CC(CC(C3)C1)C2`: the melting point lay in the range of 209 to 210 °C.
The compound `CN(C)S(=O)(=O)c1ccc(Oc2ccc([N+](=O)[O-])cc2)cc1` yielded a melting point of 116 to 118 °C.
In turn, `C/C=C/Cn1nc(C(=O)c2cccc(O)c2)c2ccccc21` showed a melting point of 75 to 78 °C.
The figure for `CCCc1c(OCCCOc2ccc(C(=O)C(=O)O)cc2)ccc(C(=O)O)c1O` is 182 to 185 °C; for `CSC(=CC(=O)c1ccccc1C)SC` it is 96.2 °C; for `CO/N=C(/C(C)=O)C(=O)OC(C)(C)C` it is 80 to 85 °C.
For the compound `O=C(NCN1CCN(c2ccccn2)CC1)c1ccccc1`, the melting point lay in the range of 125 to 127 °C.
Turning to `CC(=O)NC[C@H]1CN(c2ccc(-n3nccc3-c3ccc(C)cc3)c(F)c2)C(=O)O1`, the melting point fell in the range of 89.5 to 91.9 °C.
Take `CC(O)C(=O)N[C@H](C(=O)NC(Cc1ccccc1)C(O)CNCC(O)C(Cc1ccccc1)NC(=O)OC(C)(C)C)C(C)C` (some centres not stated): the melting point fell in the range of 210 to 214 °C.
For the compound `O=C(O)C1(S(=O)(=O)c2ccc(OCC#CCN3CCOCC3)cc2)CCN(Cc2ccc(Br)cc2)CC1`, the melting point amounted to 198 °C.
As for `Cc1ccc(C2CCCCC2)n1CC[C@H]1C[C@H](O)CC(=O)O1` (relative stereo), the melting point was in the range of 129 to 130 °C.
`O=[N+]([O-])c1ccc(OCC=CCBr)c([N+](=O)[O-])c1` showed a melting point of 55 to 57 °C.
Regarding `O=C(CN1C(=O)CC1SCc1ccccc1)NCCCCCCc1ccc(F)cc1F` (configuration not stated), the melting point fell in the range of 65 to 66 °C.
The compound `CN1C(=O)C(c2ccc(OC(F)F)cc2)(c2cccc(CCCC#N)c2)N=C1N` (configuration not stated) gave a melting point of 75 °C.
With `O=C1CN=C(c2ccccc2Cl)c2ccccc2N1`, the melting point was in the range of 109 to 111 °C.
As for `Cc1c(N2CCN(C(=O)OC(C)(C)C)CC2)nn2c(-c3ccncc3)c(-c3ccc(F)cc3)nc2c1C`, the melting point fell in the range of 231 to 233 °C.
The result for `COC(=O)C(OC(C(=O)OC)C(=O)OC)C(=O)OC` reads 60 to 61 °C; that for `CCNC(=O)Cn1c(=O)c(=O)[nH]c2ccc3ccc(-n4c(C)ccc4C)cc3c21`, greater than 285 °C.
The figure for `O=S(=O)(C(/C=C/c1ccc(F)cc1)c1c(F)c(F)c(F)c(F)c1F)C(/C=C/c1ccc(F)cc1)c1c(F)c(F)c(F)c(F)c1F` (configuration not stated) is 133 to 136 °C; for `NC1=Nc2ccccc2C2CCCC12F` (configuration not stated) it is 174 to 176 °C.
Regarding `O=C1COC(c2ccccc2)(c2ccccc2)CCN1Cc1ccccc1`, the melting point lay within 185 to 186 °C.
In the case of `COc1cccc(-c2ncc3n2C=CN(C)C3)c1`, the melting point is 211 to 214 °C.
In the case of `CC(Cc1cccc(S(N)(=O)=O)c1)=NO`, the melting point lay in the range of 154 to 157 °C.
`CCOC(=O)Cc1ccc(NC(=O)C(CO)NS(=O)(=O)c2ccc(Br)cc2)cc1` (racemic) had a melting point of 149 to 150 °C.
`CC1Cn2c(nc3ccccc32)NC1=O` (configuration not stated) yielded a melting point greater than 260 °C.
For the compound `CC1CC(=O)NN=C1c1ccc2c(c1)NCC(c1ccccc1)N2` (configuration not stated), the melting point lay within 209 to 215 °C.
For `COc1cc2c(cc1OC)C(C)(CCC(=O)O)OCC2=O` (configuration not stated), the melting point lay in the range of 172 to 173 °C.
`Cc1ncc2[nH]c3ccccc3c2n1` showed a melting point of 240 to 242 °C.
Compound `N#Cc1ccc(/C=C/C(=O)/C=C/c2ccc(C#N)cc2)cc1` gave a melting point of 137 to 138 °C.
In turn, `NC(=O)CC[C@H]1CN(c2ccc(C(=O)c3cnc4ccc(C(F)(F)F)cn34)cc2)C(=O)O1` yielded a melting point of 243 to 245 °C.
On to `CN1CCN(c2cccc3c(S(=O)(=O)c4ccccc4)c[nH]c23)CC1`, for which the melting point lay within 160 to 162 °C.
The compound `CCCCNC(=O)c1ccc(F)c2c1CC(N(CCCc1c[nH]c3ccc(F)cc13)C1CCC1)CO2` (configuration not stated) gave a melting point of 106 °C.
In turn, `CCCN(CCC)C(=O)COc1cc(C)nc(-c2ccccc2)n1` displayed a melting point of 68 to 69 °C.
`COC1=CC=C2C(=CCC(C)(c3ccc(OC)cc3)C2CCCCCCO)C1` (configuration not stated) displayed a melting point of 76 to 83 °C.
On to `OC1Cc2cc(F)cc(F)c2C1` (configuration not stated), for which the melting point was 52 to 56 °C.
Regarding `COC(=Cc1ccc(-c2cccc(N(C)C(=O)NCCc3ccccc3)c2)cc1)C(=O)O`, the melting point was found to be 144 °C.
Turning to `CNC(=O)Oc1ccc(S(C)(=O)=O)c2c1CCCC2`, the melting point was in the range of 162 to 164 °C.
The figure for `CNC(=O)NC(=O)C(CC1CCCC1)c1ccc(S(C)(=O)=O)c(Br)c1` (configuration not stated) is 259 to 260 °C; for `Cc1ccc2c(C(=O)NC3CN4CCC3CC4)cnn2c1` (configuration not stated) it is 142 to 144 °C.
Compound `CCCCSc1nc(=O)[nH]cc1F` gave a melting point of 113 °C.
`COc1ccc(CCc2oc3cccc(OC(C)=O)c3c2C)cc1` registered a melting point of 66 to 69 °C.
In turn, `CCOC(=O)NOC(=O)c1ccc(Cl)cc1` yielded a melting point of 79 °C.
Compound `CCn1c(C(F)(F)F)cc(=O)n(-c2cc(C(=O)OC3CCCC3)c(Cl)cc2F)c1=O` registered a melting point of 90 to 91 °C.
In turn, `COc1cc(CCl)c(CCl)cc1OCCCl` came in with a melting point of 117 to 118 °C.
The compound `N#Cc1ccc2c(c1)c1c(n2Cc2cccc(F)n2)CCC(NC(=O)C2CC2)C1` (configuration not stated) showed a melting point of 243 to 245 °C.
Compound `CCCCCCC1CCC(c2ccc(C(=O)CC(C)=O)cc2)CC1` (configuration not stated) gave a melting point of 74 °C.
Consider `CCn1c(=O)n(O)c(=O)c2cc(F)c(N3CCCC3)cc21`, for which the melting point was in the range of 170 to 171 °C.
With `Cc1ccc(C)n1-c1ccc(C(C)C#N)cc1` (configuration not stated), the melting point fell in the range of 79 to 80 °C.
